Experimental data reported in the Kinase Knowledgebase extract (Sharma et al. 2016).

How the values were obtained:
MAPK14 (human) [1] = target: MAPK14 (human) (UniProt Q16539); experiment: Inhibition of LPS Induced TNF-alpha Production in THP1 Cells
MAPK14 (human) [2] = target: MAPK14 (human) (UniProt Q16539); experiment: Inhibition of LPS Induced TNF-alpha Production in Human PBMC
MAPK14 (human) [3] = target: MAPK14 (human) (UniProt Q16539); experiment: Inhibition of LPS Induced IL-1Beta Production in Huamn PBMC

Chain of MAPK14 (human) (Q16539 whole entry, looked up): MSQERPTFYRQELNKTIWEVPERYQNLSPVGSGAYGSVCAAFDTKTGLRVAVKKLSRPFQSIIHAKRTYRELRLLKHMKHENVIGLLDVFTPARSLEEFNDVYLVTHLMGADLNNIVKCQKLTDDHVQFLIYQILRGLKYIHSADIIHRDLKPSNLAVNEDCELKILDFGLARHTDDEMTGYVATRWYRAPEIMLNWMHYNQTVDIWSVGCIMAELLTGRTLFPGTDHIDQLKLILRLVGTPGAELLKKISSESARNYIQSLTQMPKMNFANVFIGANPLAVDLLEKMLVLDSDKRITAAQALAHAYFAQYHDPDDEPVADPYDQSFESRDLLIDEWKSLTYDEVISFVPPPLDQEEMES

Row | Structure (SMILES) | IC50 (MAPK14 (human) [1]) [nM] | IC50 (MAPK14 (human) [2]) [nM] | IC50 (MAPK14 (human) [3]) [nM]
1 | COCCCNc1nccc(-c2c(-c3ccc(F)cc3)c(=O)n3n2CCC3)n1 | 301 | – | –
2 | O=c1c(-c2ccc(F)cc2)c(-c2ccnc(Nc3c(Cl)ncnc3Cl)n2)n2n1CCC2 | 476 | – | –
3 | O=c1c(-c2ccc(F)cc2)c(-c2ccnc(Nc3ccccn3)n2)n2n1CCC2 | 600 | – | –
4 | C[C@H](Nc1nccc(-c2c(-c3ccc(F)cc3)c(=O)n3n2CCCC3)n1)C(C)(C)O | 260 | – | –
5 | O=c1c(-c2ccc(F)cc2)c(-c2ccnc(NCc3cccnc3)n2)n2n1CCC2 | 121 | – | –
6 | O=c1c(-c2ccc(F)cc2)c(-c2ccnc(Nc3ccccc3)n2)n2n1CCC2 | 80 | – | –
7 | COC[C@H](C)Nc1nccc(-c2c(-c3ccc(F)cc3)c(=O)n3n2CCCC3)n1 | 543 | – | –
8 | O=c1c(-c2ccc(F)cc2)c(-c2ccnc(NCC3CC3)n2)n2n1CCC2 | 94 | – | –
9 | O=c1c(-c2ccc(F)cc2)c(-c2ccnc(NC3CC3)n2)n2n1CCC2 | 78 | – | –
10 | C[C@H](Nc1nccc(-c2c(-c3ccc(F)cc3)c(=O)n3n2CCC3)n1)C(C)(C)O | – | 8 | 42
11 | CC[C@H](C)Nc1nccc(-c2c(-c3ccc(F)cc3)c(=O)n3n2CCCC3)n1 | 106 | – | –
12 | COC(=O)[C@H](Nc1nccc(-c2c(-c3ccc(F)cc3)c(=O)n3n2CCC3)n1)c1ccccc1 | 147 | – | –
13 | O=c1c(-c2ccc(F)cc2)c(-c2ccnc(NCc3ccccn3)n2)n2n1CCC2 | 263 | – | –

The remaining molecules from weak to strong by IC50 (MAPK14 (human) [1]), led by results:

Row | IC50 (MAPK14 (human) [1]) [nM] | IC50 (MAPK14 (human) [2]) [nM] | IC50 (MAPK14 (human) [3]) [nM] | Structure (SMILES)
14 | 74 | – | – | O=c1c(-c2ccc(F)cc2)c(-c2ccnc(NCc3ccccc3)n2)n2n1CCC2
15 | 50 | 16 | 39 | COC[C@H](C)Nc1nccc(-c2c(-c3ccc(F)cc3)c(=O)n3n2CCC3)n1
16 | 38 | – | – | C[C@H](Nc1nccc(-c2c(-c3ccc(F)cc3)c(=O)n3n2CCC3)n1)C1CCCCC1
17 | 37 | – | – | Cc1ccc([C@H](C)Nc2nccc(-c3c(-c4ccc(F)cc4)c(=O)n4n3CCC4)n2)cc1
18 | 30 | – | – | C=CCNc1nccc(-c2c(-c3ccc(F)cc3)c(=O)n3n2CCC3)n1
19 | 29 | – | – | C[C@H](Nc1nccc(-c2c(-c3ccc(F)cc3)c(=O)n3n2CCCC3)n1)c1ccccc1
20 | 27 | – | – | C[C@@H](Nc1nccc(-c2c(-c3ccc(F)cc3)c(=O)n3n2CCC3)n1)c1ccccc1
21 | 24 | – | – | CC(C)(C)Nc1nccc(-c2c(-c3ccc(F)cc3)c(=O)n3n2CCC3)n1
22 | 6 | – | – | O=c1c(-c2ccc(F)cc2)c(-c2ccnc(Nc3c(F)cccc3F)n2)n2n1CCC2
23 | 4 | – | – | O=c1c(-c2ccc(F)cc2)c(-c2ccnc(Nc3c(Cl)cccc3Cl)n2)n2n1CCC2
24 | 3 | 0.4 | 0.8 | C[C@H](Nc1nccc(-c2c(-c3ccc(F)cc3)c(=O)n3n2CCC3)n1)c1ccccc1
25 | 2 | – | – | CC[C@H](C)Nc1nccc(-c2c(-c3ccc(F)cc3)c(=O)n3n2CCC3)n1
